Read-outs that look alike come from different tables or passages of the source.
Columns and labels:
[1] = biological target: DCN1 (DCUND1) protein PONY domain (Homo sapiens (Human), UniProt Q96GG9); test: TR-FRET assay, DCN1 binding with FAM-labeled probe
Outline: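 Tb-DCN1 PONY domain (E. coli, biotin/streptavidin-Tb); FAM-labelled non-covalent inhibitor probe; TritonX buffer, 200 mM NaCl; 5 nM DCN1 + 20 nM probe or 0.31 nM DCN1 + 900 nM total probe; 0.1% DMSO; TR-FRET read 1, 5, 24 hrs.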

[2] = biological target: DCN1 protein (Homo sapiens (Human), UniProt Q96GG9); test: Intact Protein MS Analysis with the RapidFire-TOF System (covalent adduct formation); assay type: binding; conditions: MS Emax; 400 nM DCN1, 3 hours at room temperature
Description: An MS assay was performed to evaluate the ability of the compounds to covalently modify DCN-1.
DCN1 protein, His-TEV-DCN1, were expressed in E. Coli. The His-tagged protein was first purified with an Ni-NTA column. The His-tag was cleaved using His-tag TEV protease and the His-tags were removed using a second Ni-NTA column. Protein purity was verified with SDS-PAGE and intact MS. DCN1 was dissolved in a buffer containing 25 mM Tris-HCl, 200 mM NaCl, and 1 mM DTT at 400 nM. 11 concentrations of compounds were added to the DCN1 solution and incubated at room temperature for 3 hours, unless otherwise specified. The reaction plates were quenched by adding 0.2% formic acid. […] The cartridge was re-equilibrated with loading buffer for 1 second before collection of the next sample. The Q-TOF was operated in TOF-only positive ionization mode set to the following parameters: Gas Temp=350 C, Drying Gas=7 l/min, Nebulizer=50 psi, Sheath Gas Temp=400 C, Sheath Gas Flow=12 l/min, Vcap=4000 V, Nozzle Voltage=1000 V, Fragmentor=125 V, Skimmer=65 V and Oct 1 RF Vpp=750V. Raw MS data files were deconvoluted and analyzed using the Agilent MassHunter Bioconfirm software package to identify both parent protein and expected compound adduct mass signatures.

[3] = 24 hr after treatment with compound, read-out: TR FRET IC50 24 hr
[4] = TR FRET IC50 1 hr (nM), 1 hr after treatment with compound
[5] = read-out: TR FRET IC50 1 hr, 1 hr after treatment with compound

Chain of DCN1 (DCUND1) protein PONY domain (Q96GG9 60-248): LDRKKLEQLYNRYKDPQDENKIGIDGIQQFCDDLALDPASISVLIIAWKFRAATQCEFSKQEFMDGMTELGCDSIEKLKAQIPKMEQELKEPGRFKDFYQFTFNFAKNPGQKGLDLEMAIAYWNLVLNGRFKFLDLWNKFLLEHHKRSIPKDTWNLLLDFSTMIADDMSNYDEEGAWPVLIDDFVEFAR
Chain of DCN1 protein (Q96GG9 whole entry): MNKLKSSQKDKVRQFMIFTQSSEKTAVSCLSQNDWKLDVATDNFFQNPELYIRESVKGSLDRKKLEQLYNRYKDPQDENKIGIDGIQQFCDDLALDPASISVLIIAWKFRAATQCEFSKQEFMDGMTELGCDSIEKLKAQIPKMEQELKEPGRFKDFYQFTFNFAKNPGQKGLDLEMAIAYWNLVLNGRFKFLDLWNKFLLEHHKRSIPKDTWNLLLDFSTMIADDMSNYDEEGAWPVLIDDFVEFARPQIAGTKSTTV

Compound | IC50 [1, 3] [nM] | IC50 [1, 4] [nM] | % Adduct Formation [2] | IC50 [1, 5] [nM]
C=C(C)C(=O)N[C@@H](C)c1nn(-c2ccccc2)c2c1[C@H](c1ccc(F)cc1)[C@H](NC(=O)c1cccc(C(F)(F)F)c1)C(=O)N2CC (mixture of isomers) [Compound I-16] | 1000 to 3000 | 200 to 1000 | + (MS Emax % adduct formation greater than or equal to 0.0 and less than or equal to 30.0) | –
C/C=C/C(=O)N[C@@H](C)c1nn(-c2ccccc2)c2c1[C@H](c1ccc(F)cc1)[C@H](NC(=O)c1cccc(C(F)(F)F)c1)C(=O)N2CC (mixture of isomers) [Compound I-23] | 1000 to 3000 | 1000 to 3000 | + (MS Emax % adduct formation greater than or equal to 0.0 and less than or equal to 30.0) | –
CCN1C(=O)[C@@H](NC(=O)c2cccc(C(F)(F)F)c2)[C@@H](c2ccc(F)cc2)c2c(C/C=C/C(=O)O)nn(-c3ccccc3)c21 (racemic) [Compound I-83, rac-(E)-4-((4R,5R)-7-ethyl-4-(4-fluorophenyl)-6-oxo-1-phenyl-5-(3-(trifluoromethyl)benzamido)-4,5,6,7-tetrahydro-1H-pyrazolo[3,4-b]pyridin-3-yl)but-2-enoic acid] | 1000 to 3000 | 1000 to 3000 | + (MS Emax % adduct formation greater than or equal to 0.0 and less than or equal to 30.0) | –
CC#CC(=O)N(C)Cc1nn(-c2ccccc2)c2c1[C@H](c1ccc(F)cc1)[C@H](NC(=O)c1cccc(C(F)(F)F)c1)C(=O)N2CC (racemic) [Compound I-90] | > 3000 | – | + (MS Emax % adduct formation greater than or equal to 0.0 and less than or equal to 30.0) | > 3000
CCN1C(=O)[C@@H](NC(=O)c2cccc(C(F)(F)F)c2)[C@@H](c2ccc(F)cc2)c2c(C#N)nn(-c3ccccc3)c21 (racemic) [Compound I-115, rac-N-((4R,5R)-3-cyano-7-ethyl-4-(4-fluorophenyl)-6-oxo-1-phenyl-4,5,6,7-tetrahydro-1H-pyrazolo[3,4-b]pyridine-5-yl)-3-(trifluoromethyl)benzamide] | > 3000 | > 3000 | + (MS Emax % adduct formation greater than or equal to 0.0 and less than or equal to 30.0) | –
C/C=C/C(=O)NCc1nn(-c2ccccc2)c2c1[C@H](c1ccc(F)cc1)[C@H](NC(=O)c1cccc(C(F)(F)F)c1)C(=O)N2CC (racemic) [Compound I-123] | 200 to 1000 | 200 to 1000 | + (MS Emax % adduct formation greater than or equal to 0.0 and less than or equal to 30.0) | –
CCN1C(=O)[C@@H](NC(=O)c2cccc(C(F)(F)F)c2)[C@@H](c2ccc(F)cc2)c2c(C/C=C/C(=O)OC)nn(-c3ccccc3)c21 (racemic) [Compound I-131, rac-methyl (E)-4-((4R,5R)-7-ethyl-4-(4-fluorophenyl)-6-oxo-1-phenyl-5-(3-(trifluoromethyl)benzamido)-4,5,6,7-tetrahydro-1H-pyrazolo[3,4-b]pyridin-3-yl)but-2-enoate] | 200 to 1000 | 1000 to 3000 | + (MS Emax % adduct formation greater than or equal to 0.0 and less than or equal to 30.0) | –
C=C(C)C(=O)N(C)Cc1nn(-c2ccccc2)c2c1[C@H](c1ccc(F)cc1)[C@H](NC(=O)c1cccc(C(F)(F)F)c1)C(=O)N2CC (racemic) [Compound I-156] | 200 to 1000 | 200 to 1000 | + (MS Emax % adduct formation greater than or equal to 0.0 and less than or equal to 30.0) | –
CCN1C(=O)[C@@H](NC(=O)c2cccc(C(F)(F)F)c2)[C@@H](c2ccc(F)cc2)c2c(NS(=O)(=O)CCl)nn(-c3ccccc3)c21 (racemic) [Compound I-163] | ≤ 200 | – | + (MS Emax % adduct formation greater than or equal to 0.0 and less than or equal to 30.0) | ≤ 200
CCN1C(=O)[C@@H](NC(=O)c2cccc(C(F)(F)F)c2)[C@@H](c2ccc(F)cc2)c2c(CNC(=O)C3=CCCC3)nn(-c3ccccc3)c21 (racemic) [Compound I-232] | – | – | + (MS Emax % adduct formation greater than or equal to 0.0 and less than or equal to 30.0) | –
CCN1C(=O)[C@@H](NC(=O)c2cccc(C(F)(F)F)c2)[C@@H](c2ccc(F)cc2)c2c(CN(C)C(=O)C3=CCCC3)nn(-c3ccccc3)c21 (racemic) [Compound I-233] | – | – | + (MS Emax % adduct formation greater than or equal to 0.0 and less than or equal to 30.0) | –
C/C=C/C(=O)N(C)Cc1nn(-c2ccccc2)c2c1[C@H](c1ccc(F)cc1)[C@H](NC(=O)c1cccc(C(F)(F)F)c1)C(=O)N2CC (racemic) [Compound I-234] | – | – | + (MS Emax % adduct formation greater than or equal to 0.0 and less than or equal to 30.0) | –
C#Cc1nn(-c2ccccc2)c2c1[C@H](c1ccc(F)cc1)[C@@H](NC(=O)c1cccc(C(F)(F)F)c1)C(=O)N2CC (racemic) [Compound I-235, N-((4S,5R)-7-ethyl-3-ethynyl-4-(4-fluorophenyl)-6-oxo-1-phenyl-4,5,6,7-tetrahydro-1H-pyrazolo[3,4-b]pyridine-5-yl)-3-(trifluoromethyl)benzamide] | – | – | + (MS Emax % adduct formation greater than or equal to 0.0 and less than or equal to 30.0) | –
C#CCNC(=O)c1nn(-c2ccccc2)c2c1[C@H](c1ccc(F)cc1)[C@H](NC(=O)c1cccc(C(F)(F)F)c1)C(=O)N2CC (racemic) [Compound I-242] | – | – | + (MS Emax % adduct formation greater than or equal to 0.0 and less than or equal to 30.0) | –
CCN1C(=O)[C@@H](NC(=O)c2cccc(C(F)(F)F)c2)[C@@H](c2ccc(F)cc2)c2c(C3CO3)nn(-c3ccccc3)c21 (relative stereo) [Compound I-196, N-((4RS,5RS)-7-ethyl-4-(4-fluorophenyl)-3-((S*)-oxiran-2-yl)-6-oxo-1-phenyl-4,5,6,7-tetrahydro-1H-pyrazolo[3,4-b]pyridine-5-yl)-3-(trifluoromethyl)benzamide] | – | – | + (MS Emax % adduct formation greater than or equal to 0.0 and less than or equal to 30.0) | –
CCN1C(=O)[C@H](NC(=O)c2cccc(C(F)(F)F)c2)[C@@H](c2ccc(F)cc2)c2c(C3CO3)nn(-c3ccccc3)c21 (relative stereo) [Compound I-207, N-((4RS,5SR)-7-ethyl-4-(4-fluorophenyl)-3-((S*)-oxiran-2-yl)-6-oxo-1-phenyl-4,5,6,7-tetrahydro-1H-pyrazolo[3,4-b]pyridine-5-yl)-3-(trifluoromethyl)benzamide] | – | – | + (MS Emax % adduct formation greater than or equal to 0.0 and less than or equal to 30.0) | –
CCN1C(=O)[C@@H](NC(=O)c2cccc(C(F)(F)F)c2)[C@@H](c2ccc(F)cc2)c2c(C(=O)N(C)[C@H](C#N)CCN(C)C)nn(-c3ccccc3)c21 (relative stereo) [Compound I-303, (4S,5S)—N-[(1S*)-1-cyano-3-(dimethylamino)propyl]-7-ethyl-4-(4-fluorophenyl)-N-methyl-6-oxo-1-phenyl-5-[3-(trifluoromethyl)benzamido]-4H,5H-pyrazolo[3,4-b]pyridine-3-carboxamide] | – | – | ++ (MS Emax % adduct formation greater than 30.0 and less than or equal to 80.0) | –
CCN1C(=O)[C@@H](NC(=O)c2cccc(C(F)(F)F)c2)[C@@H](c2ccc(F)cc2)c2c(CNC(=O)C(F)Cl)nn(-c3ccccc3)c21 (stereo in doubt) [Compound I-205] | – | – | + (MS Emax % adduct formation greater than or equal to 0.0 and less than or equal to 30.0) | –
CCN1C(=O)[C@@H](NC(=O)c2cccc(C(F)(F)F)c2)[C@@H](c2ccc(F)cc2)c2c([C@@H](C)NC(=O)C(C)Cl)nn(-c3ccccc3)c21 (stereo in doubt) [Compound I-212] | – | – | + (MS Emax % adduct formation greater than or equal to 0.0 and less than or equal to 30.0) | –
CCN1C(=O)[C@@H](NC(=O)c2cccc(C(F)(F)F)c2)[C@@H](c2ccc(F)cc2)c2c([C@@H](C)NC(=O)C(F)Cl)nn(-c3ccccc3)c21 (stereo in doubt) [Compound I-239] | – | – | + (MS Emax % adduct formation greater than or equal to 0.0 and less than or equal to 30.0) | –
CCN1C(=O)[C@@H](NC(=O)c2cccc(C(F)(F)F)c2)[C@@H](c2ccc(F)cc2)c2c(CN(C)C(=O)C(F)Cl)nn(-c3ccccc3)c21 (stereo partly shown) [Compound I-145] | – | – | + (MS Emax % adduct formation greater than or equal to 0.0 and less than or equal to 30.0) | –
C=C(F)C(=O)NCc1nn(-c2ccccc2)c2c1[C@H](c1ccc(F)cc1)[C@H](NC(=O)c1cccc(C(F)(F)F)c1)C(=O)N2CC [Compound I-240] | – | – | + (MS Emax % adduct formation greater than or equal to 0.0 and less than or equal to 30.0) | –
